How the values were obtained:
plasma proteins = details: cited from earlier work
[1] = after oral administration; cited from earlier work
[2] = cited from earlier work
[3] = terazosin therapy; cited from earlier work
[4] = Calculation of the release rate for a terazosin transdermal delivery system from literature pharmacokinetic data; details: product of steady state concentration and clearance rate
Excerpt: Therefore, an equal dose is required to be delivered transdermally. […] The largest desirable surface area for a transdermal patch is about 40 cm^2. […] To account for drug elimination, further pharmacokinetic data and physiological data was required. […] The largest desirable surface area for a transdermal patch is about 40 cm^2. […] One of skill would expect a different input rate or flux to maintain a steady state concentration in consideration of the rate of loss of drug in the plasma due to elimination. A confirmatory calculation for flux requires further pharmacokinetic parameters. […] The largest desirable surface area for a transdermal patch is about 40 cm^2. […], yields a release rate of […] of transdermal patch surface area.

COc1cc2nc(N3CCN(C(=O)C4CCCO4)CC3)nc(N)c2cc1OC (stereo not drawn) [terazosin, Terazosin]
bound to plasma proteins (plasma proteins): 90-94%
time until antihypertensive effects are seen [1]: ≤ 15 min
removed during hemodialysis ([2]; hemodialysis): 10%
effect of impaired renal function on elimination ([2]; impaired renal function): no significant effect
dose excreted renally as unchanged drug ([2]; in vivo): 10%
physiological clearance rate ([2]; in vivo): 4,800 ml/hour
plasma concentration at steady state ([2]; in vivo): 45 ng/mL
first-pass effect ([2]; oral administration): minimal first-pass effect
time of peak plasma levels after administration ([2]; oral administration): about 1 hour
bioavailability ([2]; oral dose, gastrointestinal absorption): 90%
effect of food on terazosin bioavailability ([2]; oral, presence of food): no significant effect
delay of time to peak concentrations by food ([2]; oral, with food): about 1 hour
plasma drug concentrations versus dosage ([2]; treatments from 1 to 5 days, dosages up to 40 mg): increased proportionately
adverse effect: asthenia (weakness, tiredness, and fatigue) [3]: 11%
adverse effect: dizziness [3]: 19%
adverse effect: drowsiness [3]: 5%
adverse effect: headache [3]: 16%
adverse effect: nasal congestion [3]: 6%
adverse effect: nausea/vomiting [3]: 4.4%
adverse effect: peripheral edema [3]: 6%
dosing rate [4]: 216 µg/h

From patent US20020198215A1 (priority 2000, published 2002)
